Data taken from PubChem BioAssay AID1963968 (Molecular Pharmacology Branch, DTP, NCI, 2024).

System: 945468-187-T-J3-PDC spheroids with HUVEC/MSC, viability
Test: Anticancer human tumor 945468-187-T-J3-PDC patient-derived rectal carcinoma cell line growth inhibition [PI3K]
Details: for IC50: curve of first compound; for viability, T/C: stronger effect = lower value
Excerpt: Combinatorial screen of targeted agents with the PI3K inhibitors inavolisib, alpelisib, duvelisib, and copanlisib in multi-cell type tumor spheroids
A high-throughput screen of multi-cell type tumor spheroids was designed to identify active combinations of targeted small molecules and PI3K pathway inhibitors. Complex spheroids include a stromal component modeled by human endothelial cells (HUVEC) and fibroblasts modeled by human mesenchymal stem cells (MSCs). The concentration ranges selected for each drug and investigational agent were based upon clinically achievable concentrations if the clinical Cmax of the agent was known.
Compounds. The drugs and investigational agents: inavolisib (NSC800729), alpelisib (NSC765974), duvelisib (NSC772469), copanlisib (NSC816437), ipatasertib (NSC767898), afuresertib (NSC778305), talazoparib (NSC767125), sapanisertib (NSC764658), selumetinib (NSC741078), tovorafenib (DAY101, NSC766906), vemurafenib (NSC761431), ravoxertinib (NSC781343), sotorasib (NSC818433), MRTX1133 (NSC 836407), abemaciclib (NSC 768073), palbociclib (NSC758247), venetoclax (NSC 766270), SY5609 (NSC837396), enzalutamide (NSC755605), and darolutamide (NSC825331), were obtained from the National Cancer Institute (NCI) Developmental Therapeutics Program Chemical Repository. The FDA-approved anticancer drug set is available from the NCI Developmental Therapeutics Program. […] The stock solutions were prepared in dimethyl sulfoxide (DMSO, Sigma-Aldrich, St. Louis, MO, cat. D2650) at 800-fold the tested concentration and stored at -70 degrees C prior to their use. All drugs and investigational agents were tested over a range starting from a high concentration at or near the clinical Cmax and decreasing in half-log increments. If the clinical Cmax for an agent had not been determined, the highest concentration tested was 10 microM.
Cell Culture. All cells were maintained in an incubator at 37 degrees C and 5% CO2 with 95% humidity. The PDC lines were cultured according to standard operating procedures established by the NCI PDMR (https://pdmr.cancer.gov/sops/default.htm). All PDCs were thawed and cultured in Matrigel-coated flasks prepared with a working solution of 1X Ham's F-12 nutrient mix, without supplementation (Invitrogen, Waltham, MA, cat. 11765054), 100 U/mL penicillin-streptomycin (Invitrogen, cat. 15140122), and 2.5% Matrigel (Corning Inc., Corning, NY, cat. 354248) for the first three passages. The 354836-022-R-J1-PDC, 475296-252-R-J1-PDC, and 997726-040-R-J2-PDC lines were cultured in 6A media, which includes advanced DMEM/F-12 (Thermo Fisher Scientific, cat. 12634028), 10 mM HEPES (Thermo Fisher Scientific, cat. 15630080), 1X GlutaMAX supplement (Thermo Fisher Scientific, cat. 35050061), 0.1 mg/mL primocin (InvivoGen, San Diego, CA, cat. ant-pm-2), 10% defined fetal bovine serum, heat inactivated (HyClone Laboratories Inc., Logan, UT, cat. SH30070.03HI), 50% L-WRN conditioned media (ATCC, cat. CRL-3276), 1.25 mM N-Acetyl-L-cysteine (Sigma-Aldrich, cat. A9165), 10 mM nicotinamide (Sigma-Aldrich, cat. N0636), 1X B-27 supplement (Thermo Fisher Scientific, cat. 17504044), 1X N-2 supplement (Thermo Fisher Scientific, cat. 17502048), and 10 microM Y-27632 dihydrochloride (Tocris Bioscience, Bristol, United Kingdom, cat. 1254). The 624824-186-R-J2-PDC line was cultured in 6C/Colon 1B media, which includes all 6A media components plus 50 ng/mL human EGF recombinant protein (Thermo Fisher Scientific, cat. PHG0311). […]

[1] = second compound 0.00316 µM, first compound 0.0316 µM
[2] = second compound 0.00316 µM, first compound 0.1 µM
[3] = second compound 0.01 µM, first compound 0.0316 µM
[4] = second compound 0.01 µM, first compound 0.1 µM
[5] = second compound 0.0316 µM, first compound 0.0316 µM
[6] = second compound 0.0316 µM, first compound 0.1 µM
[7] = second compound 0.1 µM, first compound 0.0316 µM
[8] = second compound 0.1 µM, first compound 0.1 µM
[9] = second compound 0.316 µM, first compound 0.0316 µM
[10] = second compound 0.316 µM, first compound 0.1 µM
[11] = second compound 1 µM, first compound 0.0316 µM
[12] = second compound 1 µM, first compound 0.1 µM
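Note: spheroids exposed to agents for 7 days before viability read.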
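Throughout, for viability, T/C: 100% = DMSO vehicle control viability.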

CC(C)n1nc(-c2ccc3oc(N)nc3c2)c2c(N)ncnc21 + CC(Nc1ccc2c(c1)OCCn1cc(N3C(=O)OCC3C(F)F)nc1-2)C(N)=O
IC50 (second compound 0.00316 µM): > 100 nM | IC50 (second compound 0.01 µM): > 100 nM | IC50 (second compound 0.0316 µM): 93.1 nM | IC50 (second compound 0.1 µM): 73.8 nM | IC50 (second compound 0.316 µM): 27.4 nM | IC50 (second compound 1 µM): 5.19 nM | viability, T/C (second compound 0.00316 µM, first compound 0.000316 µM): 111% | viability, T/C (second compound 0.00316 µM, first compound 0.001 µM): 104% | viability, T/C (second compound 0.00316 µM, first compound 0.00316 µM): 109% | viability, T/C (second compound 0.00316 µM, first compound 0.01 µM): 116% | viability, T/C [1]: 118% | viability, T/C [2]: 71% | viability, T/C (second compound 0.01 µM, first compound 0.000316 µM): 102% | viability, T/C (second compound 0.01 µM, first compound 0.001 µM): 105% | viability, T/C (second compound 0.01 µM, first compound 0.00316 µM): 98.1% | viability, T/C (second compound 0.01 µM, first compound 0.01 µM): 111% | viability, T/C [3]: 123% | viability, T/C [4]: 63.4% | viability, T/C (second compound 0.0316 µM, first compound 0.000316 µM): 99.1% | viability, T/C (second compound 0.0316 µM, first compound 0.001 µM): 94.5% | viability, T/C (second compound 0.0316 µM, first compound 0.00316 µM): 129% | viability, T/C (second compound 0.0316 µM, first compound 0.01 µM): 110% | viability, T/C [5]: 114% | viability, T/C [6]: 46% | viability, T/C (second compound 0.1 µM, first compound 0.000316 µM): 102% | viability, T/C (second compound 0.1 µM, first compound 0.001 µM): 107% | viability, T/C (second compound 0.1 µM, first compound 0.00316 µM): 104% | viability, T/C (second compound 0.1 µM, first compound 0.01 µM): 126% | viability, T/C [7]: 87.2% | viability, T/C [8]: 36.7% | viability, T/C (second compound 0.316 µM, first compound 0.000316 µM): 103% | viability, T/C (second compound 0.316 µM, first compound 0.001 µM): 104% | viability, T/C (second compound 0.316 µM, first compound 0.00316 µM): 91% | viability, T/C (second compound 0.316 µM, first compound 0.01 µM): 77.8% | viability, T/C [9]: 45.2% | viability, T/C [10]: 24.9% | viability, T/C (second compound 1 µM, first compound 0.000316 µM): 65.7% | viability, T/C (second compound 1 µM, first compound 0.001 µM): 64.9% | viability, T/C (second compound 1 µM, first compound 0.00316 µM): 60.3% | viability, T/C (second compound 1 µM, first compound 0.01 µM): 36.3% | viability, T/C [11]: 34.9% | viability, T/C [12]: 29.8%

CC1(C)CCC(CN2CCN(c3ccc(C(=O)NS(=O)(=O)c4ccc(NCC5CCOCC5)c([N+](=O)[O-])c4)c(Oc4cnc5[nH]ccc5c4)c3)CC2)=C(c2ccc(Cl)cc2)C1 + CC(Nc1ccc2c(c1)OCCn1cc(N3C(=O)OCC3C(F)F)nc1-2)C(N)=O
IC50 (second compound 0.00316 µM): > 10000 nM | IC50 (second compound 0.01 µM): > 10000 nM | IC50 (second compound 0.0316 µM): > 10000 nM | IC50 (second compound 0.1 µM): > 10000 nM | IC50 (second compound 0.316 µM): > 10000 nM | IC50 (second compound 1 µM): > 10000 nM | viability, T/C [1]: 96.8% | viability, T/C [2]: 112% | viability, T/C (second compound 0.00316 µM, first compound 0.316 µM): 102% | viability, T/C (second compound 0.00316 µM, first compound 1 µM): 114% | viability, T/C (second compound 0.00316 µM, first compound 3.16 µM): 131% | viability, T/C (second compound 0.00316 µM, first compound 10 µM): 52.9% | viability, T/C [3]: 97.7% | viability, T/C [4]: 125% | viability, T/C (second compound 0.01 µM, first compound 0.316 µM): 94% | viability, T/C (second compound 0.01 µM, first compound 1 µM): 114% | viability, T/C (second compound 0.01 µM, first compound 3.16 µM): 132% | viability, T/C (second compound 0.01 µM, first compound 10 µM): 63.2% | viability, T/C [5]: 121% | viability, T/C [6]: 101% | viability, T/C (second compound 0.0316 µM, first compound 0.316 µM): 112% | viability, T/C (second compound 0.0316 µM, first compound 1 µM): 121% | viability, T/C (second compound 0.0316 µM, first compound 3.16 µM): 125% | viability, T/C (second compound 0.0316 µM, first compound 10 µM): 63.2% | viability, T/C [7]: 121% | viability, T/C [8]: 114% | viability, T/C (second compound 0.1 µM, first compound 0.316 µM): 105% | viability, T/C (second compound 0.1 µM, first compound 1 µM): 126% | viability, T/C (second compound 0.1 µM, first compound 3.16 µM): 125% | viability, T/C (second compound 0.1 µM, first compound 10 µM): 65.5% | viability, T/C [9]: 107% | viability, T/C [10]: 103% | viability, T/C (second compound 0.316 µM, first compound 0.316 µM): 102% | viability, T/C (second compound 0.316 µM, first compound 1 µM): 113% | viability, T/C (second compound 0.316 µM, first compound 3.16 µM): 120% | viability, T/C (second compound 0.316 µM, first compound 10 µM): 73.2% | viability, T/C [11]: 79.2% | viability, T/C [12]: 68% | viability, T/C (second compound 1 µM, first compound 0.316 µM): 80% | viability, T/C (second compound 1 µM, first compound 1 µM): 79.2% | viability, T/C (second compound 1 µM, first compound 3.16 µM): 81.1% | viability, T/C (second compound 1 µM, first compound 10 µM): 53.9%
